# Reference: article PMC7229161 (Scientific Reports, 2020)
# Entries after “also recorded” stand apart in the source; their conditions may differ.
# Assays:
# [1] = target: cTRPV1 (Gallus gallus, UniProt Q8QFN9); experiment: cell-based; format: cell-based, chicken (Gallus gallus)
# [2] = target: rTRPV1 (Rattus norvegicus, UniProt O35433); format: cell-based
# [3] = tested on: 3XHA-cTRPV1-A578K; format: cell-based, chicken (Gallus gallus)
# [4] = target: T1, rTRPV1-E570Q (Rattus norvegicus, UniProt O35433, E570Q); format: cell-based
# T1 construct: expressed in transfected cells; host or cells: HEK293T
# T1 sequence (O35433 whole entry E570Q): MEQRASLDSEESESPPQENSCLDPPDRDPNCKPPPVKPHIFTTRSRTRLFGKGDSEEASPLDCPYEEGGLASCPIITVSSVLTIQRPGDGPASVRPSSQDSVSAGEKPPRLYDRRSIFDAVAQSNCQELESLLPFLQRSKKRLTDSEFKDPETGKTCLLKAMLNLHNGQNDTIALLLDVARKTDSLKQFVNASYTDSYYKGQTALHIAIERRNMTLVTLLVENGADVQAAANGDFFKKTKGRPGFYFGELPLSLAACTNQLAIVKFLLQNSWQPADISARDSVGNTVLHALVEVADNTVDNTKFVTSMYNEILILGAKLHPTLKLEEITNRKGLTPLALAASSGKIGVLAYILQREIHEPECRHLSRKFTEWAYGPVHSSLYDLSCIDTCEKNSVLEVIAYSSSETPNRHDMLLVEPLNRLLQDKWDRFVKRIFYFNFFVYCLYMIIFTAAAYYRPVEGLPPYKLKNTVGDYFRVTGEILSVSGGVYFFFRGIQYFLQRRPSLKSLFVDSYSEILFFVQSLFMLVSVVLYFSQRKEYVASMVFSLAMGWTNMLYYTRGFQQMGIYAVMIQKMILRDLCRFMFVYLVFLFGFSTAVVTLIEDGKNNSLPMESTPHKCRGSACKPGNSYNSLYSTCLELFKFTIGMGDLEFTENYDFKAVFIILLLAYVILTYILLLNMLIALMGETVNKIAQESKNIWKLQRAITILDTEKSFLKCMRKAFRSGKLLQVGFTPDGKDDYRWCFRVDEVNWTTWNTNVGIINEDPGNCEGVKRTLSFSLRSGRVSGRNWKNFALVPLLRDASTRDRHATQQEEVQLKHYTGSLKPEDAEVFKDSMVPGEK
# [5] = target: T2, rTRPV1-E570A (Rattus norvegicus, UniProt O35433, E570A); format: cell-based
# T2 construct: expressed in transfected cells; host or cells: HEK293T
# T2 sequence (O35433 whole entry E570A): as the sequence (O35433 whole entry E570Q) above, with Q570A counted along it
# [6] = target: T3, rTRPV1-E570K (Rattus norvegicus, UniProt O35433, E570K); format: cell-based
# T3 construct: expressed in transfected cells; host or cells: HEK293T
# T3 sequence (O35433 whole entry E570K): as the sequence (O35433 whole entry E570Q) above, with Q570K counted along it
# [7] = tested on: 3XHA-cTRPV1-A578P; format: cell-based, chicken (Gallus gallus)
# [8] = tested on: Ch6 rat-chicken TRPV1 chimera (rat N-terminus, M1-R428); format: cell-based
# [9] = tested on: 3XHA-cTRPV1-A578Q; format: cell-based, chicken (Gallus gallus)
# [10] = target: cTRPV1-A578E (Gallus gallus, UniProt Q8QFN9, A578E); experiment: cell-based; set-up: species or system chicken (Gallus gallus)
# Chain of cTRPV1-A578E (Q8QFN9 1-843 A578E): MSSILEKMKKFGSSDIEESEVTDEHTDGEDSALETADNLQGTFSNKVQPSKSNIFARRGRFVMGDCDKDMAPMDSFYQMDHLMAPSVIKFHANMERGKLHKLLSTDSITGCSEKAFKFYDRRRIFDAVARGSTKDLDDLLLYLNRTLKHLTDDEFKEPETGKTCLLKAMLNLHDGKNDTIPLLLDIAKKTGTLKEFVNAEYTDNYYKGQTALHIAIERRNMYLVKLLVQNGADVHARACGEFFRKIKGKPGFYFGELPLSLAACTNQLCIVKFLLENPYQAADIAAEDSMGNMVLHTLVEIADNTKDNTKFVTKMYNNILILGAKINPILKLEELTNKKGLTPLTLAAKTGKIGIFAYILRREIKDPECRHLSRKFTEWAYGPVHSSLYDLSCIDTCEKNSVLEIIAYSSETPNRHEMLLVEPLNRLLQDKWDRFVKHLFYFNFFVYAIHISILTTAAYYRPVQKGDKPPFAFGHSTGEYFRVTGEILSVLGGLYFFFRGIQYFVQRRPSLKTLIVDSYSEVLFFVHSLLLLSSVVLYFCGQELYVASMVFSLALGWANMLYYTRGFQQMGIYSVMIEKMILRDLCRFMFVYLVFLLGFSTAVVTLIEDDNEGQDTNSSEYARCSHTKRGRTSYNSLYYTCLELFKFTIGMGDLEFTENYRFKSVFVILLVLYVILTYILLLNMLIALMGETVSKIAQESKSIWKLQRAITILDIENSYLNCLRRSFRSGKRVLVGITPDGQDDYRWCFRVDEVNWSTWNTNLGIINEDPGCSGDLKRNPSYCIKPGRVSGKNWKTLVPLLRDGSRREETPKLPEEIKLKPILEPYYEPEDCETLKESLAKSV
# [11] = target: T4, rTRPV1-E570P (Rattus norvegicus, UniProt O35433, E570P); format: cell-based
# T4 construct: expressed in transfected cells; host or cells: HEK293T
# T4 sequence (O35433 whole entry E570P): as the sequence (O35433 whole entry E570Q) above, with Q570P counted along it
# [12] = tested on: Ch15 rat-chicken TRPV1 chimera (rat C-terminus, N687-K838); format: cell-based
# Chain of cTRPV1 (Q8QFN9 1-843): as the sequence (Q8QFN9 1-843 A578E) above, with E578A counted along it
# Chain of rTRPV1 (O35433 whole entry): as the sequence (O35433 whole entry E570Q) above, with Q570E counted along it
compound,measurement,setting,value
ruthenium red,block of cocktail-elicited ion flow,[1],sufficient to block most ions
same,block of cocktail-elicited extracellular Ca2+ entry,[2],could be blocked
"CNCCOc1ccc(CNC(=O)CCCC/C=C/C(C)C)cc1OC [Cap-EMA, O-(N-methylaminoethyl) capsaicin]",capsaicin analog-induced activation,[3],slightly activated
same,capsaicin analog-induced activation,[2],strong response
COc1cc(CNC(=O)CCCC/C=C/C(C)C)ccc1O [capsaicin],responsiveness to 300 nM capsaicin normalized to protein expression level,[4],"exhibited responsiveness to 300 nM capsaicin, albeit much weaker than wildtype"
same,vanilloid responsiveness (30 μM capsaicin-induced activation normalized to cocktail-induced maximum channel opening),[3],greatest capsaicin sensitivity
same,capsaicin-induced responses vs wildtype rTRPV1,[5],drastically decreased
same,EC50,[1],> 30 µM
same,channel activation (Ca2+ signal),[1],the response was relatively weak for cTRPV1; also recorded: limited response
same,responsiveness to 300 nM capsaicin normalized to protein expression level,[6],"exhibited responsiveness to 300 nM capsaicin, albeit much weaker than wildtype"
same,vanilloid responsiveness (30 μM capsaicin-induced activation normalized to cocktail-induced maximum channel opening),[7],greatest capsaicin sensitivity
same,capsaicin sensitivity of chimera vs cTRPV1,[8],limited improvement in capsaicin sensitivity
same,vanilloid responsiveness (30 μM capsaicin-induced activation normalized to cocktail-induced maximum channel opening),[9],greatest capsaicin sensitivity
same,channel activation (Ca2+ signal),[2],activated rTRPV1
same,EC50,[10],7.2 ± 9.4 µM
same,"increase of response to 100 μM capsaicin, A578E mutant vs wildtype cTRPV1",[10],5 fold
same,vanilloid responsiveness (30 μM capsaicin-induced activation normalized to cocktail-induced maximum channel opening),[10],greatest capsaicin sensitivity
same,responsiveness to 300 nM capsaicin normalized to protein expression level,[11],reduced capsaicin sensitivity
same,capsaicin sensitivity of chimera,[12],no capsaicin sensitivity
"COc1cc(CNC(=O)CCCC/C=C/C(C)C)ccc1OCCN [Cap-EA, O-aminoethyl capsaicin]",capsaicin analog-induced activation,[3],partially activated
same,capsaicin analog-induced activation,[2],strong response
same,capsaicin analog-induced activation,[10],successfully activated; also recorded: strongly activated
COc1cc(CCC(C)=O)ccc1O [zingerone],zingerone-induced activation,[3],did not activate
same,zingerone-induced activation,[7],did not activate
same,zingerone-induced activation,[9],did not activate
same,Zingerone-induced activity relative to capsaicin,[2],35.9 ± 5.0%
same,zingerone-induced activation,[2],activated rTRPV1
same,zingerone-induced activation,[10],did not activate
